Experimental data as given in article PMC10605077, “In Vitro and In Silico Antiviral Activity of Di-Halogenated Compounds Derived from L-Tyrosine against Human Immunodeficiency Virus 1 (HIV-1)” (Current Issues in Molecular Biology, 2023).

system: not listed separately; test: MTT cytotoxicity assay; format: cell-based; settings: human; TZM-bl cells, MTT, 48 h
Protocol: The in vitro cytotoxic effect of the di-halogenated compounds on TZM-bl cells was determined with the MTT (3-(4,5-Dimethylthiazol-2-yl)-2,5-diphenyltetrazolium bromide) assay (Sigma-Aldrich, St. Louis, MO, USA). For this purpose, 1.2 × 10^5 cells/well were seeded in 96-well plates, which were incubated at 37 °C and 5% CO2 for 24 h. DMEM was used as a negative control and serial two-fold dilutions of the compounds were performed at 9.37 to 300 μM in DMEM supplemented with 5% FBS. A total of 100 μL/well of each dilution was added and incubated for 48 h. Subsequently, the cells were washed 2 times with 1X PBS, and 30 μL of MTT solution (2 mg/mL) was added and incubated for 2 h at 37 °C, in a light-protected culture. Then, 100 µL of DMSO was added to dissolve the formazan crystals, placed in shaking for 15 min, and absorbance reading was performed at 570 nm, using the Microplate Spectrophotometer (Thermo Scientific™ Multiskan™ GO, Waltham, MA, USA). Two independent experiments evaluated each experimental condition in quadruplicate (n = 8). The percentage of viability was calculated concerning the absorbance of the controls without a compound (100% viability). The 50% cytotoxic concentration was defined as the concentration of each compound that can reduce cell viability to 50% of the untreated cell control. CC50 was calculated and analyzed with GraphPad Prism version 8.0.1 (GraphPad Software, Inc., San Diego, CA, USA).

Compound | CC50 at 48 h [µM]
CN(C)[C@@H](Cc1cc(Cl)c(O)c(Cl)c1)C(=O)O [TDC-2M] | ~174
C[N+](C)(C)[C@@H](Cc1cc(Cl)c(O)c(Cl)c1)C(=O)O [TDC-3M] | > 300
COc1c(Cl)cc(C[C@@H](C(=O)O)[N+](C)(C)C)cc1Cl [TODC-3M] | 74.9

system: HIV-GFP-VSV-G reporter virus; test: microbe, parasite or virus in culture; format: cell-based, HIV-1; settings: not given

Compound | percentage inhibition of HIV-GFP-VSV-G replication [%]
COc1c(Cl)cc(C[C@@H](C(=O)O)[N+](C)(C)C)cc1Cl [TODC-3M] | 19.5

system: not listed separately; test: Viability assay of PBMC, flow cytometry with viability dye; format: cell-based, Human; settings: human, PBMC stimulated with PHA and IL-2; all concentrations tested (18.75 μM up to 150 μM), 7 days; read-out: viability level on PBMCs
Protocol: PBMCs were thawed and let in the culture in RPMI with 10% fetal bovine serum (FBS) (Gibco, Grand Island, NY, USA) for 24 h before each experiment. Cells were stimulated for 48 h with 8 μg/mL of Phytohemagglutinin-PHA (Sigma-Aldrich, St. Louis, MO, USA) and 50 UI/mL of IL-2 (Peprotech, Rocky Hill, CT, USA). In the presence of various concentrations of di-halogenated compounds derived from L-Tyrosine, 2 × 10^5 cells per well were treated and resuspended in 200 µL of fresh medium with 20 UI/mL of IL-2 and incubated in 96-well culture plates for 7 days. After 7 days post-treatment, cell viability was determined using flow cytometry. Briefly, cells were stained with fixable viability dye eFluor 506 (eBioscience, Leicestershire, UK) as detailed in the manufacturer’s protocol for 30 min in the dark. Later, cells were washed and resuspended in PBS, and the percentage of viable cells was measured instead in the LS Fortessa cytometer (BD Biosciences, Franklin Lakes, NJ, USA). Data were analyzed using FlowJo version 10.5.3 (FlowJo, LLC, Ashland, OR, USA).

Compound | viability at 7 days [%]
COc1c(Cl)cc(C[C@@H](C(=O)O)[N+](C)(C)C)cc1Cl [TODC-3M] | > 90

system: HIV-1IIIB (X4); test: Anti-HIV activity in infected TZM-bl cells (luciferase), pre- and post-infection treatment; format: cell-based, Human Immunodeficiency Virus Type 1 (HIV-1); settings: HIV-1IIIB, TZM-bl cells
Protocol: (§1) TZM-bl cells were plated in a flat-bottom 96-well plate (Corning Inc., Corning, New York, NY, USA) at the concentration of 1.2 × 10^5 cells/well and incubated for 24 h at 37 °C before the addition or not of each compound at non-cytotoxic concentrations (pre-infection treatment). Then, 1 h later the treatment was removed, and the infection was performed by adding 10 ng/mL of HIV-1IIIB p24 (X4) or 2 ng/mL of HIV-1 BaL (R5). After 3 h, the virus was removed and washed, and the compound dilutions were added again (post-infection treatment). Additionally, three wells were left for the negative control (cells without treatment or infection), the positive control of infection (cells infected with the virus without treatment), and the positive control of inhibition (AZT). Antiviral activity was quantified 48 h after treatment by measuring luciferase activity, which is directly proportional to the number of infectious virus particles in the sample [23]. The luciferase activity was quantified via luminescence emitted by the cells using Bright-GloTM Luciferase Assay System (Promega Corp., Madison, WI, USA), following the manufacturer’s instructions. Briefly, 100 μL of the reagent was added to 100 μL of TZM-bl cells and incubated for at least 2 min, protected from light. Relative light units (RLUs) were measured using the multi-mode plate reader (Thermo ScientificTM VarioskanTM LUX). Each experimental condition was performed in triplicate in two independent experiments (n = 6). The percentage inhibition was calculated as follows: 100 − (RLU of treated cells − RLU of uninfected cells/RLU of infection control − RLU of uninfected cells) × 100.

Compound | anti-HIV activity against X4 strain in words
CN(C)[C@@H](Cc1cc(Cl)c(O)c(Cl)c1)C(=O)O [TDC-2M] | no antiviral activity
C[N+](C)(C)[C@@H](Cc1cc(Cl)c(O)c(Cl)c1)C(=O)O [TDC-3M] | no antiviral activity

same assay, conditions: Human immunodeficiency virus 1, TZM-bl, 18 µM, TZM-bl cells; read-out: Percentage inhibition of HIV-1IIIB (X4 strain) replication

Compound | inhibition at 18 µM [%]
CN(C)[C@@H](Cc1cc(Cl)c(O)c(Cl)c1)C(=O)O [TDC-2M] | -4.8
C[N+](C)(C)[C@@H](Cc1cc(Cl)c(O)c(Cl)c1)C(=O)O [TDC-3M] | -111
COc1c(Cl)cc(C[C@@H](C(=O)O)[N+](C)(C)C)cc1Cl [TODC-3M] | -1.3

same assay, conditions: Human immunodeficiency virus 1, TZM-bl, 37 µM, TZM-bl cells; read-out: Percentage inhibition of HIV-1IIIB (X4 strain) replication

Compound | inhibition at 37 µM [%]
CN(C)[C@@H](Cc1cc(Cl)c(O)c(Cl)c1)C(=O)O [TDC-2M] | -15.4
C[N+](C)(C)[C@@H](Cc1cc(Cl)c(O)c(Cl)c1)C(=O)O [TDC-3M] | 9.6
COc1c(Cl)cc(C[C@@H](C(=O)O)[N+](C)(C)C)cc1Cl [TODC-3M] | -6.9

same assay, conditions: Human immunodeficiency virus 1, TZM-bl, 75 µM, TZM-bl cells; read-out: Percentage inhibition of HIV-1IIIB (X4 strain) replication

Compound | inhibition at 75 µM [%]
CN(C)[C@@H](Cc1cc(Cl)c(O)c(Cl)c1)C(=O)O [TDC-2M] | -39.5
C[N+](C)(C)[C@@H](Cc1cc(Cl)c(O)c(Cl)c1)C(=O)O [TDC-3M] | 8.1
COc1c(Cl)cc(C[C@@H](C(=O)O)[N+](C)(C)C)cc1Cl [TODC-3M] | 26.7

same assay, conditions: Human immunodeficiency virus 1, TZM-bl, 150 µM, TZM-bl cells; read-out: Percentage inhibition of HIV-1IIIB (X4 strain) replication

Compound | inhibition at 150 µM [%]
CN(C)[C@@H](Cc1cc(Cl)c(O)c(Cl)c1)C(=O)O [TDC-2M] | -72.2
C[N+](C)(C)[C@@H](Cc1cc(Cl)c(O)c(Cl)c1)C(=O)O [TDC-3M] | 15.1
COc1c(Cl)cc(C[C@@H](C(=O)O)[N+](C)(C)C)cc1Cl [TODC-3M] | 14.9

system: HIV-1 BaL (R5); test: as above; format: cell-based, Human Immunodeficiency Virus Type 1 (HIV-1); settings: HIV-1 BaL, TZM-bl cells
Protocol: as §1

Compound | anti-HIV activity against R5 strain in words
CN(C)[C@@H](Cc1cc(Cl)c(O)c(Cl)c1)C(=O)O [TDC-2M] | showed antiviral activity
C[N+](C)(C)[C@@H](Cc1cc(Cl)c(O)c(Cl)c1)C(=O)O [TDC-3M] | showed antiviral activity

same assay, conditions: Human immunodeficiency virus 1, BAL, TZM-bl, 48 h, HIV-1 BaL (R5), TZM-bl cells, luciferase

Compound | IC50 [µM]
CN(C)[C@@H](Cc1cc(Cl)c(O)c(Cl)c1)C(=O)O [TDC-2M] | 141

same assay, conditions: Human immunodeficiency virus 1, BAL; 37 µM, TZM-bl cells; read-out: Percentage inhibition of HIV-1 BaL replication

Compound | inhibition at 37 µM [%]
CN(C)[C@@H](Cc1cc(Cl)c(O)c(Cl)c1)C(=O)O [TDC-2M] | 33
C[N+](C)(C)[C@@H](Cc1cc(Cl)c(O)c(Cl)c1)C(=O)O [TDC-3M] | 20.4
COc1c(Cl)cc(C[C@@H](C(=O)O)[N+](C)(C)C)cc1Cl [TODC-3M] | 54.9

same assay, conditions: Human immunodeficiency virus 1, BAL; 75 µM, TZM-bl cells; read-out: Percentage inhibition of HIV-1 BaL replication

Compound | inhibition at 75 µM [%]
CN(C)[C@@H](Cc1cc(Cl)c(O)c(Cl)c1)C(=O)O [TDC-2M] | 37.9
C[N+](C)(C)[C@@H](Cc1cc(Cl)c(O)c(Cl)c1)C(=O)O [TDC-3M] | 39.7
COc1c(Cl)cc(C[C@@H](C(=O)O)[N+](C)(C)C)cc1Cl [TODC-3M] | 37.6

same assay, conditions: Human immunodeficiency virus 1, BAL; 150 µM, TZM-bl cells; read-out: Percentage inhibition of HIV-1 BaL replication

Compound | inhibition at 150 µM [%]
CN(C)[C@@H](Cc1cc(Cl)c(O)c(Cl)c1)C(=O)O [TDC-2M] | 32.3
C[N+](C)(C)[C@@H](Cc1cc(Cl)c(O)c(Cl)c1)C(=O)O [TDC-3M] | 29.6
COc1c(Cl)cc(C[C@@H](C(=O)O)[N+](C)(C)C)cc1Cl [TODC-3M] | 46.7

same assay, conditions: Human immunodeficiency virus 1, BAL; 300 µM, TZM-bl cells; read-out: Percentage inhibition of HIV-1 BaL replication

Compound | inhibition at 300 µM [%]
CN(C)[C@@H](Cc1cc(Cl)c(O)c(Cl)c1)C(=O)O [TDC-2M] | 47.3
C[N+](C)(C)[C@@H](Cc1cc(Cl)c(O)c(Cl)c1)C(=O)O [TDC-3M] | 25.9
COc1c(Cl)cc(C[C@@H](C(=O)O)[N+](C)(C)C)cc1Cl [TODC-3M] | 59.9

same assay, conditions: selectivity index against HIV-1 BaL (CC50 and IC50 of Table 3)

Compound | SI
CN(C)[C@@H](Cc1cc(Cl)c(O)c(Cl)c1)C(=O)O [TDC-2M] | ~1.24
